According to ChEMBL document CHEMBL4052720, “Activity cliff for 7-substituted pyrrolo-pyrimidine inhibitors of HCK explained in terms of predicted basicity of the amine nitrogen” (Bioorg Med Chem, 2017):

Legend:
[1] = target: T1, Tyrosine-protein kinase HCK (Homo sapiens, UniProt P08631); assay: Inhibition of HCK (75 to 526 residues) (unknown origin) expressed in Sf9 insect cells after 120 mins
[2] = target: T1, Tyrosine-protein kinase HCK; assay: biochemical

T1 sequence (P08631 whole entry, the tested form may be a part): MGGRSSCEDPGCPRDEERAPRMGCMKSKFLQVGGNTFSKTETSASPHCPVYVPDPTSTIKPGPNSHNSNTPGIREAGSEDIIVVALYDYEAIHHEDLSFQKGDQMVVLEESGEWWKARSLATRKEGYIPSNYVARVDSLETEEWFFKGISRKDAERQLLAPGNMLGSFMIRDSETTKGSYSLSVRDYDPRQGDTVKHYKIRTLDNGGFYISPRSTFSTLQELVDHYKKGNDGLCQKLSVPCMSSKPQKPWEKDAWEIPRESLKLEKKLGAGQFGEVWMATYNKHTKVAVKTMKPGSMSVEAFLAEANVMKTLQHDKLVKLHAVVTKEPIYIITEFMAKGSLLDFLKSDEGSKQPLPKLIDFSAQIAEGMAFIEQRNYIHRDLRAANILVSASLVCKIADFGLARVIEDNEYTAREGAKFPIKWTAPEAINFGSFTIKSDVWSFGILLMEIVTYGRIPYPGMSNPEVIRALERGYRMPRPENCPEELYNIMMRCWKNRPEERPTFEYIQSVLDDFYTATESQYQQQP

SMILES	IC50 ([1]; read-out: IC50) [nM]	IC50 ([1]; read-out: pIC50 (converted)) [nM]	IC50 [2] [nM]
CC(C)C[C@H](N[C@H]1CC[C@H](n2cc(-c3ccc(Oc4ccccc4)cc3)c3c(N)ncnc32)CC1)C(N)=O	210	–	–
CCOC(=O)[C@H](CC(C)C)N[C@H]1CC[C@H](n2cc(-c3ccc(Oc4ccccc4)cc3)c3c(N)ncnc32)CC1	1320	–	–
CNC(=O)[C@H](CC(C)C)N[C@H]1CC[C@H](n2cc(-c3ccc(Oc4ccccc4)cc3)c3c(N)ncnc32)CC1	111	–	–
CC(C)C[C@H](N[C@H]1CC[C@H](n2cc(-c3ccc(Oc4ccccc4)cc3)c3c(N)ncnc32)CC1)C(=O)O	11	–	–
CC(C)C[C@H](N[C@H]1CC[C@H](n2cc(-c3ccc(Oc4ccccc4)cc3)c3c(N)ncnc32)CC1)C(=O)N(C)C	686	–	–
CN1CCN([C@H]2CC[C@H](n3cc(-c4ccc(Oc5ccccc5)cc4)c4c(N)ncnc43)CC2)CC1	–	0.427	0.43
